Experimental data as given in patent publication US20260166169A1, “ANTIBODY-DRUG CONJUGATE, PREPARATION METHOD AND USE THEREOF” (priority 2023, published 2026).

Test system: Detroit 562 cells
Test: In vitro killing assay of ADC on Detroit562 cells (CCK-8)
Type: cell-based
Settings: Detroit 562, 5 days, 3-fold dilutions from 300 nM, CCK-8, FIG. 19
Experimental: Experimental Example 4: In Vitro Killing Assay of ADC on Detroit562 Cells
Detroit 562 cells (purchased from Nan Jing cobioer biosciences Co., Ltd.) were cultured so that a cell density reached to 80%. The cells were collected, plated in a 96-well plate, and the cell density was adjusted to 2-5×10^4/ml. Each well was plated with 100 μL of cells, and the ADC molecules were serially diluted 3 times with an initial concentration of 300 nM. After the dilution was completed, the ADC molecules were added to the cell culture medium and cultured for 5 days, during which the apoptosis of the cells was observed regularly. After 5 days, 15 μL of the CCK-8 kit stock solution was added to the 96-well plate and reacted in an incubator of 37° C. for 0.5-2 h. An absorbance at 450 nm was measured, and cell survival curves were drawn based on OD (optical density) readings and ADC dilution gradients.
Human IgG-DXD prepared in Comparative Example 4, Human IgG-LP1 prepared in Comparative Example 5, Human IgG-LP2 prepared in Comparative Example 7, Hu1H2-2-LP1 prepared in Example 6, Hu1H2-2-LP2 prepared in Example 8, and Hu1H2-2-DXD prepared in Comparative Example 9 were selected as ADC molecules. Wherein Human IgG was used as the isotype control of Hu1H2-2 antibody, and DXD was used as positive drug.

**Q.** How did the “in vitro killing effect (cell survival curve)” value turn out when `CC[C@@]1(O)C(=O)OCc2c1cc1n(c2=O)Cc2c-1nc1cc(F)c(C)c3c1c2[C@@H](NC(=O)OCc1ccc(NC(=O)CNC(=O)[C@H](Cc2ccccc2)NC(=O)CNC(=O)CNC(=O)CCCCCN2C(=O)C=CC2=O)cc1CN(C)C(=O)CN(C)C(=O)CN(C)C(=O)CN(C)C(=O)CN(C)C(=O)CN(C)C(=O)CN(C)C(=O)CN(C)C(=O)CN(C)C(=O)CN(C)C(=O)CN(C)C(C)=O)CC3` [LP-2] was run?
**A.** The value was “more excellent killing effects in vitro on Detriot562”.
